Columns and labels:
Assay in all cases: relative viability (nuclei count vs DMSO), 5 days (fraction); higher = more cells survive
AT-7519 + Foretinib = compound: O=C(NC1CCNCC1)c1n[nH]cc1NC(=O)c1c(Cl)cccc1Cl [AT-7519] + COc1cc2c(Oc3ccc(NC(=O)C4(C(=O)Nc5ccc(F)cc5)CC4)cc3F)ccnc2cc1OCCCN1CCOCC1 [Foretinib] (partner 0.25 µM)
Procedure, shortened: (§1)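 Values are medians from duplicate plates. Each reflects relative viability, defined as the nuclei count of treated wells over that of vehicle wells. Lung cancer cell lines in 1536-well plates were pin-tool dosed one day after seeding with one drug alone or with a fixed anchor-drug dose plus five library-drug doses (not always all listed) in √10 steps, then fixed, stained and imaged at 4× after 5 days.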

AT-7519 + Phenformin = compound: O=C(NC1CCNCC1)c1n[nH]cc1NC(=O)c1c(Cl)cccc1Cl [AT-7519] + N=C(N)NC(=N)NCCc1ccccc1 [Phenformin] (partner 250 µM)
Procedure, shortened: as §1

[1] = compound: C1=CC2=C(C=C(C(=C2N=C1)O)N=NC3=CC4=C(C=C3)C=C(C=C4)S(=O)(=O)O)S(=O)(=O)O + Cc1nc(NC(=O)N2CCC[C@H]2C(N)=O)sc1-c1ccnc(C(C)(C)C(F)(F)F)c1 [Alpelisib] (partner 2 µM)
Procedure, shortened: as §1

[2] = compound: C1=CC2=C(C=C(C(=C2N=C1)O)N=NC3=CC4=C(C=C3)C=C(C=C4)S(=O)(=O)O)S(=O)(=O)O + Cc1nc(Nc2ncc(C(=O)Nc3c(C)cccc3Cl)s2)cc(N2CCN(CCO)CC2)n1 [Dasatinib] (partner 0.075 µM)
Procedure, shortened: as §1

Cell Line	relative viability (AT-7519 + Foretinib; first compound 0.01 µM)	relative viability (AT-7519 + Foretinib; first compound 0.03162 µM)	relative viability (AT-7519 + Foretinib; first compound 0.3162 µM)	relative viability (AT-7519 + Foretinib; first compound 1 µM)	relative viability (AT-7519 + Phenformin; first compound 0.01 µM)	relative viability (AT-7519 + Phenformin; first compound 0.03162 µM)	relative viability (AT-7519 + Phenformin; first compound 0.3162 µM)	relative viability (AT-7519 + Phenformin; first compound 1 µM)	relative viability ([1]; first compound 0.08 µM)	relative viability ([1]; first compound 0.253 µM)	relative viability ([1]; first compound 2.53 µM)	relative viability ([1]; first compound 8 µM)	relative viability ([2]; first compound 0.08 µM)	relative viability ([2]; first compound 0.253 µM)	relative viability ([2]; first compound 0.8 µM)	relative viability ([2]; first compound 2.53 µM)	relative viability ([2]; first compound 8 µM)	relative viability ([1]; first compound 0.8 µM)
NCI-H441	1.04	1.01	0.949	0.63	0.847	0.955	0.775	0.515	0.823	0.823	0.736	1.09	0.574	0.587	0.568	0.59	0.679	
NCI-H460	1.05	0.821	1.05	0.233	0.636	0.31	0.0379	0.0177	0.545	0.456	0.5	0.291	0.515	0.536	0.492	0.489	0.522	0.511
NCI-H520	0.922	0.624	0.718	0.593	0.66	0.669	0.422	0.257	0.907	0.846	0.869	0.995	0.185	0.206	0.204	0.157	0.176	0.923
NCI-H596	0.922	0.834	0.897	0.731	0.732	0.653	0.642	0.714	0.48	0.454	0.475	0.482	0.651	0.685	0.554	0.727	0.703	0.575
NCI-H647	1.27	1.21	0.985	0.889	0.619	0.529	0.335	0.281	1.32	1.19	1.17	0.984	0.212	0.169	0.151	0.143	0.194	1.11
NCI-H650	1.04	0.923	1.01	1.08	0.492	0.465	0.49	0.421	1.25	1.11	1.08	1.09	0.412	0.433	0.496	0.462	0.342	1.08
NCI-H661	1.05	0.875	1.05	0.468	0.277	0.27	0.249	0.189	0.746	0.467	0.703	0.967	0.938	0.877	0.903	0.93	0.817	0.54
NCI-H727	1.14	0.691	0.769	0.297	0.527	0.584	0.509	0.417	0.547	0.578	0.609	0.567	0.454	0.39	0.352	0.412	0.345	0.537
NCI-H838	1.07	1.02	0.886	0.527	0.534	0.552	0.247	0.0953	1.22	0.959	1.05	0.97	0.292	0.25	0.283	0.3	0.29	1.05
NCI-H1355	0.906	0.989	1.02	0.854	0.455	0.461	0.371	0.458	0.94	0.838	0.905	0.956	0.764	0.754	0.708	0.77	0.665	0.767
NCI-H1395	0.991	1.12	0.961	0.786	0.463	0.518	0.443	0.407	1.08	1.21	1.06	1.23	0.386	0.433	0.45	0.397	0.43	1.09
NCI-H1437	1.3	1.32	1.24	1.01	0.322	0.328	0.292	0.194	1.06	0.995	0.94	0.929	0.351	0.402	0.43	0.383	0.301	0.935
NCI-H1563	0.846	0.867	0.948	0.957	0.66	0.625	0.645	0.651	0.931	0.94	1.11	1.1	0.455	0.478	0.492	0.397	0.418	1.07
NCI-H1651	0.855	0.786	0.803	0.683	0.298	0.344	0.36	0.325	1.09	1.02	1.08	0.895	0.451	0.3	0.416	0.406	0.466	1.16
NCI-H1666	0.839	0.77	0.927	0.647	0.59	0.568	0.538	0.402	0.985	0.837	0.994	1.04	0.866	0.755	0.793	0.816	0.741	1.05
NCI-H1734	0.897	0.809	0.718	0.429	0.385	0.342	0.323	0.175	0.746	0.692	0.638	0.689	0.583	0.346	0.428	0.44	0.48	0.636
NCI-H1755	0.947	0.944	0.813	0.878	0.638	0.633	0.608	0.546	1.02	0.874	0.949	0.956	0.483	0.475	0.455	0.433	0.536	0.933
NCI-H1793	0.679	0.646	0.726	0.488	0.354	0.457	0.434	0.387	0.871	0.706	0.858	0.652	0.372	0.403	0.364	0.367	0.372	

Cell Line	relative viability (AT-7519 + Foretinib; first compound 0.01 µM)	relative viability (AT-7519 + Foretinib; first compound 0.03162 µM)	relative viability (AT-7519 + Foretinib; first compound 0.3162 µM)	relative viability (AT-7519 + Foretinib; first compound 1 µM)	relative viability (AT-7519 + Phenformin; first compound 0.01 µM)	relative viability (AT-7519 + Phenformin; first compound 0.03162 µM)	relative viability (AT-7519 + Phenformin; first compound 0.3162 µM)	relative viability (AT-7519 + Phenformin; first compound 1 µM)	relative viability ([1]; first compound 0.08 µM)	relative viability ([1]; first compound 0.253 µM)	relative viability ([1]; first compound 2.53 µM)	relative viability ([1]; first compound 8 µM)	relative viability ([2]; first compound 0.08 µM)	relative viability ([2]; first compound 0.253 µM)	relative viability ([2]; first compound 0.8 µM)	relative viability ([2]; first compound 2.53 µM)	relative viability ([2]; first compound 8 µM)	relative viability ([1]; first compound 0.8 µM)
NCI-H1915	1.07	1.1	1.07	0.807	0.365	0.384	0.345	0.376	1.09	1.05	1.09	1.06	0.311	0.321	0.29	0.316	0.314	1.08
NCI-H1944	0.899	0.855	0.84	0.662	0.234	0.207	0.197	0.182	0.842	0.718	0.858	0.838	0.222	0.244	0.201	0.212	0.206	0.832
NCI-H1975	0.982	0.953	0.863	0.189	0.382	0.408	0.274	0.155	0.741	0.653	0.645	0.649	0.388	0.356	0.343	0.4	0.388	0.603
NCI-H1993	0.786	0.842	0.809	0.594	0.544	0.574	0.528	0.439	0.71	0.682	0.705	0.701	0.579	0.648	0.633	0.594	0.566	0.747
NCI-H2009	1.33	1.18	1.27	0.686	0.521	0.451	0.472	0.276	1.19	1.05	1.16	1.1	0.261	0.275	0.288	0.313	0.283	1.1
NCI-H2023	0.962	0.914	1.05	0.459	0.389	0.435	0.321	0.0704	0.606	0.671	0.564	0.624	0.689	0.622	0.558	0.648	0.541	0.636
NCI-H2085	0.932	0.84	0.888	0.874	0.744	0.7	0.759	0.53	1.08	0.989	1	0.913	0.277	0.253	0.254	0.208	0.291	1.05
NCI-H2087	1.14	1.09	1.07	0.295	0.472	0.442	0.479	0.172	0.938	0.888	0.977	0.989	0.962	0.872	0.715	0.847	0.884	1.08
NCI-H2126	1.08	1.24	0.838	1.12	0.552	0.494	0.491	0.33	0.834	0.738	0.724	0.768	0.711	0.645	0.64	0.713	0.693	0.779
NCI-H2170	1.09	1.03	1.04	0.958	0.412	0.414	0.423	0.418	0.872	0.802	0.82	0.76	0.636	0.574	0.659	0.633	0.55	0.78
NCI-H2228	0.833	0.789	0.814	0.595	0.298	0.305	0.193	0.165	0.687	0.787	0.655	0.695	0.639	0.469	0.464	0.514	0.49	0.778
NCI-H2347	0.738	0.902	0.8	0.819	0.281	0.388	0.582	0.185	1.03	0.995	1.07	1.06	0.317	0.316	0.333	0.343	0.247	1.07
NCI-H2405	1.04	1.11	1.01	0.628	0.375	0.39	0.35	0.32	0.805	0.758	0.886	0.722	0.146	0.226	0.208	0.201	0.219	0.838
NCI-H3122	1.07	0.968	0.983	0.465	0.405	0.37	0.325	0.13	0.891	0.795	0.732	0.76	0.954	0.741	0.716	0.882	0.0807	0.719
PC-3 [JPC-3]	1.03	1.05	1.03	1.06	0.471	0.474	0.45	0.484	1.11	1.02	1.04	0.998	1.11	0.98	1.03	1.05	1	0.971
PC-14	0.889	0.856	0.928	0.915	0.519	0.566	0.424	0.314	1.03	0.875	0.994	0.967	0.257	0.288	0.296	0.31	0.281	0.891
RERF-LC-KJ	0.939	0.813	0.879	0.921	0.456	0.418	0.388	0.217	0.907	0.842	0.818	0.843	0.803	0.965	0.943	0.958	0.888	0.795
